US20230310496A1, “COMPOSITIONS AND METHODS FOR PREVENTING AND/OR AM[…]-[…] AUTOIMMUNE DISEASES” (MiZ Company Limited, priority 2022, published 2023)
Where two headings read alike, the source gives them in different places.

Experiments:
myasthenia gravis = test: Course of myasthenia gravis under drugs before inhalation of hydrogen gas (Example 1); type: in vivo, human; details: Tacrolimus 3 mg/day, Mestinon 60 mg × 3/day
Procedure: The course from onset is as follows:
Aug. 26, 2021: upper lip paralysis occurred. […] Since the patient was positive on an ice pack test and a Tensilon test, they were diagnosed as myasthenia gravis. No abnormality was found in a CT test. As a result of a blood test, the patient was false positive to an anti-acetylcholine antibody and prescribed an immunosuppressant (Tacrolimus 3 mg/day). […] The patient could not read letters on a newspaper, raise a frying pan or write letters, and their chewing power reduced.
Sep. 9, 2021: the patient consulted the doctor because of worsening of symptoms and prescribed an anticholinesterase agent (Mestinon 60 mg × 3/day). […] Every day after 3 p.m. or later, the patient felt that their arms are unbearably heavy. Since the arms cannot be removed, the patient spent time with the arms kept on a table.
Sep. 25, 2021: since symptoms were not improved and merely got worse, the patient changed their primary doctor to a neuroimmunology specialist doctor and hospitalization was considered.
Sep. 29, 2021: an immunosuppressant (1 mg) was additionally prescribed by the neuroimmunology specialist doctor; that is, immunosuppressants (Tacrolimus 3 mg/day, Prograf 1 mg/day) were prescribed. The patient avoided hospitalization but was followed up as an outpatient. […] Based on the result, the patient was definitively diagnosed as anti-MuSK antibody positive myasthenia gravis. […]

[1] = tested on: anti-MuSK antibody positive myasthenia gravis; details: for relapse after use of the immunosuppressants was stopped: only hydrogen gas inhalation continued since Mar. 30, 2022, supplemental hydrogen water
Procedure: Patient: person at the time of onset. The course from onset is as follows:
Jan. […] (Kamakura city, Kanagawa prefecture, Japan).
Aug. 24, 2022: medical examination was carried out at the Department of Neurology in the Juntendo University Hospital.

Hashimoto's disease = details: MHG-2000α, hydrogen about 5% to 7%
[2] = human, in vivo

SMILES | symptoms of myasthenia gravis under the drug (myasthenia gravis) | languor of the arm ([1]; Day 5 after initiation of inhalation, Jobs-α, hydrogen about 4% to 5%, Jan. 28, 2022) | constipation, a side effect of the immunosuppressants ([1]; Feb. 1, 2022, inhalation started Jan. 23, 2022) | blemishes on their face ([1]; Feb. 16, 2022) | symptoms of myasthenia gravis ([1]; Mar. 20, 2022) | body feeling when inhaling hydrogen gas ([1]; Mar. 22, 2022) | state of myasthenia gravis as told by the doctor ([1]; Oct. 19, 2022) | face turning red after drinking alcohol (side effect of the drugs) ([1]; after inhalation of hydrogen, Feb. 1, 2022) | number of red blood cells ([1]; blood test Mar. 9, 2022, under hydrogen inhalation, normal 3.8 to 5.04) | hematocrit ([1]; blood test Mar. 9, 2022, under hydrogen inhalation, normal 35.6 to 45.4) | anti-MuSK antibody ([1]; medical examination Aug. 24, 2022) | relapse after use of the immunosuppressants was stopped [1] | relapse after use of the immunosuppressants was stopped ([1]; listed as hydrogen) | fatigue (Hashimoto's disease) | visual field (dark visual field) (Hashimoto's disease) | side effects of hydrogen itself [2]
CN(C)C(=O)Oc1ccc[n+](C)c1 [Mestinon] | their symptoms further got worse |  |  |  |  |  |  |  |  |  |  |  |  |  |  | 
C=CC[C@@H]1/C=C(\C)C[C@H](C)C[C@H](OC)[C@H]2O[C@@](O)(C(=O)C(=O)N3CCCC[C@H]3C(=O)O[C@H](/C(C)=C/[C@@H]3CC[C@@H](O)[C@H](OC)C3)[C@H](C)[C@@H](O)CC1=O)[C@H](C)C[C@@H]2OC [Tacrolimus] | the symptoms progressed |  |  |  |  |  |  |  |  |  |  |  |  |  |  | 
[HH] [hydrogen gas, hydrogen] |  | completely gone | overcome | became light | no longer observed | the body gets lighter | not in remission but in healed state | their face never turned red | 4.22 10^12/L | 40.7% | negative | no relapse occurred | no relapse has taken place | felt less fatigued | recovered from darkness and became bright | not found
